Like-named read-outs stand apart in the source and are kept apart here.
Legend:
[1] = Reversed-phase HPLC analysis of final compounds (stability under the analytical conditions); type: physicochemical
Method: Final compounds: Reversed-phase HPLC/MS analyses were carried out with a HPLC Ultimate 3000 (ThermoScientific) with an UV-DAD detector. Mass detection processing with direct infusion in mass detector (SQD2) from UPLC Acquity (Waters). Compounds (0.2 to 0.6 mg) were solubilized in a mixture of DMSO/H2O (1/1) and filtered on syringe filter 0.2 µm. • Acidic conditions: Thermo Scientific Syncronis C18 column, 150 x 4.6 mm, 5 µm. Flow rate: 1 mL/min. Gradient: (H2O + 0.1% HCOOH v/v)/(ACN + 0.1% HCOOH v/v) from 95/5 to 5/95 in 19.0 min. • Alkaline conditions: Thermo Scientific Syncronis C18 column, 150 × 4.6 mm, 5 µm or XTERRA RP18, 150×4.6mm, 3.5µm. Flow rate: 1 mL/min. Gradient: (HCOONH4 10mM + NH4OH 25% aq. to ajust pH = 10)/ACN from 95/5 to 5/95 in 19.0 min. Table 2: Spectroscopic and analytical characterization of compounds (1) to (220)

[2] = molecular target: T1, human recombinant A3AR (expressed in HEK-293 cells) (Homo sapiens, UniProt P0DMS8); assay: Adenosine receptors antagonism assay (Eurofins), [125I]-AB-MECA radioligand competition; type: binding
T1 construct: host or cells: HEK-293 cells
T1 sequence (P0DMS8 1-318): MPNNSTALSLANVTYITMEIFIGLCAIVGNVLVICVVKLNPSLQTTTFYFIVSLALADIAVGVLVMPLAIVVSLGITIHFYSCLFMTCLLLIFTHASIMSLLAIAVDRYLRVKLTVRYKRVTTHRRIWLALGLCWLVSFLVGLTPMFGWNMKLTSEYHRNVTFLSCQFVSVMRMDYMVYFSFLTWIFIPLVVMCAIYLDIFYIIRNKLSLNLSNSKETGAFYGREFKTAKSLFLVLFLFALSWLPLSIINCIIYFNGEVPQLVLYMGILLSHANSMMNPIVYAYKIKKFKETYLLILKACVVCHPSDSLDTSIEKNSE

[3] = tested on: hair cells in isolated organs of Corti; assay: Otoprotective effects in ex vivo cultured organs of Corti, hair cells stained for myosine 7a; type: cell-based, mice; conditions: 24 hrs, compound 0.1-1 µM added 2 hrs before
Method: Organs of Corti were obtained from mice at the P0-P3 stage. Organs of Corti were cultured ex vivo for 24 h before addition of cisplatin (20 µM), gentamycin (100 µM) or neomycin (3 mM) with or without compound (175) (1 or 0.1 µM) added 2 hrs before the ototoxins. After 24 hrs incubation, outer and inner ciliated hair cells were stained with an antibody directed against myosine 7a.

[4] = tested on: panel of 168 GPCRs; assay: PathHunter β-arrestin enzyme fragment complementation, agonist and antagonist mode; type: cell-based; conditions: figure 2
Method: […] In brief, when the GPCR is activated and β-Arrestin is recruited to the receptor, the two fragments of β-galactosidase complementation occurs, restoring β- galactosidase activity which is measured using chemiluminescent PathHunter® Detection Reagents. The tested compound can be evaluated as a potential agonist or, in the presnece of a specifi agonits of each GPCR, as a potential antagonist. Results are provided in reference to the assay performed in the absence of tested compound.
The results of an evaluation of the potential agonist or antagonist activity of compound (175) on 168 GPCRs are depicted in figure 2.

[5] = molecular target: T2, Human recombinant A3AR expressed in CHO cells (Homo sapiens, UniProt P0DMS8); assay: A3AR functional assay, cAMP levels measured by HTRF; type: cell-based
T2 construct: expressed in transfected cells; host or cells: CHO cells
T2 sequence (P0DMS8 1-318): T1 sequence (P0DMS8 1-318)
Method: Both assays were run for 20 min at 37°C, and cAMP levels measured by HTRF (homogeneous time resolved fluorescence) was used as an endpoint. The EC50 values (concentration producing a half-maximal response) and IC50 values (concentration causing a half-maximal inhibition of the control agonist response) were determined by non-linear regression analysis of the concentration-response curves generated with mean replicate values using Hill equation curve fitting.
An antagonistic activity in a radioligand assay can be due to competition to the same site by either an agonist or an antagonist (inhibitor). […] Assays were run for 20 min at 37°C and cAMP level measured by HTRF was used as an endpoint measure of the A3AR activity.

[6] = [125I]-AB-MECA 0.15 nM, r.t., 120 min, IC50 from dose-response curves, read-out: Potency Class A3AR

HPLC ([1]; Acidic conditions (H2O + 0.1% HCOOH / ACN + 0.1% HCOOH gradient)) | IC50 [2, 6] [nM] | effect on all other GPCRs ([4]; agonist and antagonist mode, 0.1 µM compound) | inhibition of A3AR among 168 GPCRs ([4]; antagonist mode, GPCR exposed to its specific ligand and 0.1 µM compound) | agonist effect ([5]; absence of ligand, concentrations tested 1 nM to 3.3 µM, data not shown) | inhibition of A3AR ([5]; antagonist mode, stimulation 10 nM IB-MECA, 20 min at 37°C, figure 4) [%] | mode of action on A3AR ([5]; figure 4) | selectivity towards ARs ([2]; A3AR compared to A1AR, A2AAR and A2BAR, figure 3) | Structure (SMILES) | HPLC ([1]; Alkaline conditions (HCOONH4 10mM + NH4OH, pH = 10 / ACN gradient)) | IC50 [2] [nM] | hair cell death induced by cisplatin ([3]; cisplatin 20 µM, figure 5A) | hair cell death induced by gentamycin ([3]; gentamycin 100 µM, figure 5B) | hair cell death induced by neomycin ([3]; neomycin 3 mM, figure 5C)
Unstable ^a | 10 to 100 | – | – | – | – | – | – | CSCCCNc1cc(NCc2ccccc2)c2nnc(C(C)C)n2n1 [compound 17, N8-benzyl-3-isopropyl-N6-(3-methylsulfanylpropyl)-[1,2,4]triazolo[4,3-b]pyridazine-6,8-diamine] | – | – | – | – | –
– | – | – | – | – | – | – | – | CCC(CC)Nc1cc(NC(=O)Oc2ccccc2)c2nnc(C(C)C)n2n1 [compound 100, phenyl N-[6-(1-ethylpropylamino)-3-isopropyl-[1,2,4]triazolo[4,3-b]pyridazin-8-yl]carbamate] | Unstable ^b | 1 to 10 | – | – | –
– | < 1 | not or marginally impacted | fully inhibited | no agonist effect was detected | ≥ 65 | partial antagonist inhibitor | selective of A3AR | CCC(CC)Nc1cc(Nc2cccnn2)c2nnc(C3CC3)n2n1 [compound 175, 3-cyclopropyl-N6-(pentan-3-yl)-N8-(pyridazin-3-yl)-[1,2,4]triazolo[4,3-b]pyridazine-6,8-diamine] | – | – | prevented cell death | prevented cell death | prevented cell death

— patent EP4477653A1 (Perha Pharmaceuticals, priority 2023, dated 2024)
